Structures can show the parent of a compound that is named as a salt. The source made the active and inactive calls. For most assays here, no stated cut-off is given here; in the data, actives have a measured EC50 and inactives only a lower limit. Bounds are passed on as bounds.

The nature of assay [1]: Luminescence Cell-Based Dose Retest to Confirm Inhibitors of Cancer Stem Cells. [Related pubchem assays (depositor defined):AID2717, AID2721]. Format: functional. Particulars: Homo sapiens.
Assay [2] is described as follows: NIH-3T3 fibroblast cytotoxicity, dose response, cytotoxicity control, cell-based, fluorescence, Alamar Blue, secondary assay (AID 2327).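 Further: NIH-3T3 mouse fibroblasts cultured with fluconazole at 8 µg/mL.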 It counts as functional.
Assay [3] is described as follows: fluconazole-exposed Candida albicans growth modulators – fluorescence, retest, confirmation (AID 2467). It counts as functional, cell-based.
Assay [4] in a line: NIH3T3 cell viability loss – ATP luminescence, mouse fibroblasts, counter-screen, dose response (AID 2010).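 Further: cells exposed to compound for about 90 hours before reading.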 Format: functional, cell-based.
Assay [5] in a line: Trypanosoma cruzi growth suppression in host cells – NIH3T3 host cells, beta-gal luminescence, confirmation (AID 2044).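 Further: intracellular parasites grown in NIH/3T3 mouse fibroblasts as host cells; luminescent beta-galactosidase reporter signal from transgenic T. cruzi replicating inside host cells; inhibitors lower the luminescence signal.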 It counts as functional, cell-based.
Assay [6] deals with Streptococcus. The assay can be described thus: GAS UMAA2166 growth inhibition – luminescence, BacTiterGlo, counter-screen for streptokinase expression inhibitor project, dose response (AID 1915).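 Further: potency for reduction of bacterial viability or growth.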 It counts as functional, organism-based.
In assay [7] the test system is Streptococcus sp. 'group A'. The assay can be described thus: Streptococcus pyogenes SK(-)GAS viability under kanamycin – luminescence, BacTiterGlo, confirmation, counter-screen for streptokinase expression inhibitor project, dose response (AID 1900). Format: functional, organism-based.
Assay [8] deals with T1, Heat shock factor protein 1 (Mus musculus, UniProt P38532).
T1 sequence (P38532 whole entry): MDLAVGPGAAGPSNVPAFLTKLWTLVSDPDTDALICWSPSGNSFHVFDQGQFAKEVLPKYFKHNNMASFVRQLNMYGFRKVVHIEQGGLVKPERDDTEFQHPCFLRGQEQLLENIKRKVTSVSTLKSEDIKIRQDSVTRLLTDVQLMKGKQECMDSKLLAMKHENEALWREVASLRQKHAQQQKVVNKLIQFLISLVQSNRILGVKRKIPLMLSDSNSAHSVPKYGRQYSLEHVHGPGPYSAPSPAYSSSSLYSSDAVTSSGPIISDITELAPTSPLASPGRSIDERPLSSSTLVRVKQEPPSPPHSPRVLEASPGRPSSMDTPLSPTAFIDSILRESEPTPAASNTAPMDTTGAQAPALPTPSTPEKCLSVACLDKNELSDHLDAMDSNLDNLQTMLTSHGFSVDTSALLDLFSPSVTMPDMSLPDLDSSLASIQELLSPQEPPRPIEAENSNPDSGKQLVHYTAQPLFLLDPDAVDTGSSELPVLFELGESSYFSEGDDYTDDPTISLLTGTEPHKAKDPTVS
The assay can be described thus: decrease of HSF1-responsive luciferase luminescence – cell-based, NIH3T3, dose retest, confirmation (AID 2382).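 Further: NIH3T3 fibroblasts with HSF1-driven luciferase reporter stressed by proteasome inhibitor MG132; luminescence from HSF1-driven luciferase expression after 8 hours of MG132 stress.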 Format: functional.

Assay [9] is described as follows: viability of uninfected HEp-2 cells – cell-based, HTS, cytotoxicity control for RSV inhibitor project, dose response (AID 2410). The following applies: human respiratory syncytial virus. Format: functional.
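Wherever AC50 is given: cells exposed to compound for roughly 70 hours or longer before luminescence read.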

For `O=C(Nc1ccc2c(c1)OCO2)c1ccc(COc2ccc3c(c2)CCC3)o1`, the AC50 in assay [1] is 3.1 µM (active).

Turning to `O=C(c1ccc(C(=O)N2CCN(c3ccccc3F)CC2)nc1)N1CCN(c2ccccc2F)CC1`, the EC50 in [2] was > 160 µM (inactive); in assay [3] it was > 38 µM (not active). For the compound `Cc1ccc(/C=C/C(=O)NCCc2ccccc2)o1`, the AC50 in assay [1] was > 195 µM (inactive). Consider `CC(=S)/C=C1\Sc2ccccc2N1C`, for which the EC50 is > 150 µM (inactive) in assay [2], > 60 µM (not active) in assay [4], 0.739 µM (active) in [5] and 1.9 µM (active) in assay [3].

`COc1ccccc1-n1c(O)cc(=O)nc1SCC(=O)Nc1ccc(Br)cc1`: the EC50 in [6] was 22.6 µM (active); in assay [7], 6.68 µM (active). With `COC(=O)c1cc(=O)n(Cc2cccs2)/c(=N/c2ccc(F)cc2)s1`, the AC50 in assay [1] is 3.81 µM (active).

With `CNC(=O)c1ccc2c(c1)nnn2C`, the EC50 was 58.7 µM (active) in [2] and > 38 µM (not active) in assay [3]. Regarding `Cc1nnc(-c2cnn(-c3ccccc3)c2N)n1Cc1cccc(C(F)(F)F)c1`, in [8], the EC50 is given as > 195 µM (not active). In the case of `Cc1ccsc1/C=C1\C(=O)NC(=S)N(C)C1=O`, the EC50 in assay [8] is given as > 195 µM (not active).

Turning to `Cc1nn(CC(=O)NCCCc2ccccc2)c(C)c1[N+](=O)[O-]`, in assay [2], the EC50 was > 150 µM (inactive). Consider `COc1ccc(S(=O)(=O)NCC(c2cccnc2)N2CCN(Cc3ccccc3)CC2)cc1` (centres undefined), for which the EC50 was > 60 µM (not active) in [4] and 1.58 µM (active) in assay [5]. In the case of `CNC(=S)N/N=C/c1ccc(-c2ccc(Cl)c([N+](=O)[O-])c2)o1`, the EC50 was > 150 µM (inconclusive) in assay [2] and > 38 µM (not active) in assay [3]. With `COc1ccccc1C(=O)Nc1ccccc1N1CCN(C(=O)c2ccc(Cl)cc2)CC1`, in assay [9], the CC50 is 26.5 µM (active). In the case of `Cc1ccc(NC(=O)NC2CCCCCCC2)c(C)c1`, the EC50 was 19.6 µM (inconclusive) in assay [2] and > 38 µM (not active) in [3]. Regarding `CCOC(=O)C(O)(c1ccc(NC(=O)c2ccc(Cl)c(Cl)c2)cc1)C(F)(F)F` (centres undefined), the CC50 in assay [9] was 20.9 µM (active). On to `c1ccc2c(c1)OCC(c1csc3ncnc(N4CCCCC4)c13)O2` (centres undefined), for which, in [9], the CC50 was 16.8 µM (active). Consider `COc1ccc(NC(=O)CN2C(=O)COc3ccc(S(=O)(=O)N4CCOCC4)cc32)c(OC)c1`, for which the concentration giving a half-maximal response (EC50) in [8] is recorded as > 195 µM (not active). On to `Cc1cc(C)c2nc(O)c(CN(Cc3cccs3)C(S)=NCc3ccco3)cc2c1`, for which the AC50 in [1] is 61.4 µM (active).

As for `O=C(c1ccc([N+](=O)[O-])s1)N1CCN(c2ccccc2)CC1`, the values for the EC50 in assay [4] and in assay [5] were > 60 µM (not active) and 0.808 µM (active), respectively.

For `CCCCC1SC(N/N=C/c2ccco2)=NC1=O` (centres undefined), the EC50 in assay [2] was > 150 µM (inactive); in assay [3] it was 5.08 µM (active). Taken in the same sequence, the figures for `NC(=O)c1c(NC(=O)c2ccncc2)sc2c1CCCC2` were > 150 µM (inactive) and 2.12 µM (active). With `O=C(Nc1ccc(Br)cn1)c1cccc(-c2cc3ccccc3oc2=O)c1`, the AC50 in assay [1] is 8.81 µM (active). As for `COc1ccc(-n2nc(C(=O)NCC(=O)NCc3ccccc3OC)c3ccccc3c2=O)c(OC)c1`, the EC50 in assay [8] is listed as > 195 µM (not active). Same read-out and setting: the value for `Cc1ccc(C)c(N2CCN(C(=O)c3cc(S(=O)(=O)N4CCCC4)cn3C)CC2)c1` was > 195 µM (not active). As to `C=CCOc1c(Cl)cc(CNc2ccc(C)c(Cl)c2)cc1OC`, the figures for the EC50 in assay [4] and in assay [5] were 0.491 µM (active) and 2.75 µM (active), respectively.

On to `C[C@@H](O)[C@H]1C(=O)N2C(C(=O)O)=C(S[C@@H]3CN[C@H](C(=O)N(C)C)C3)[C@H](C)[C@H]12` [MEROPENEM], for which the concentration for a half-maximal effect (EC50) in assay [6] was 1.15 µM (active); in assay [7], 0.153 µM (active). On to `COc1cccc(-c2nc(CCl)cs2)c1`, for which the EC50 in assay [4] is > 60 µM (not active); in assay [5] it was 3.25 µM (active). Take `NS(=O)(=O)c1ccc(CCNCC#Cc2ccccc2)cc1`: the EC50 in [8] was > 195 µM (not active). Turning to `CCC(=O)N1CCN(c2cc(N3CCN(C)CC3)c(F)cc2[N+](=O)[O-])CC1`, the concentration giving a half-maximal response (EC50) in assay [4] was > 60 µM (not active); in assay [5] it was 0.765 µM (active). As to `CO/N=C/c1ccc(N2CCN(C(=O)c3ccc(C)cc3)CC2)c([N+](=O)[O-])c1`, the EC50 in [2] was > 160 µM (inactive); in [3] it was > 38 µM (not active). For the compound `C/C(=N\NC(=O)c1nn(C)c(C)c1Br)c1ccc(NC(=O)C2CCCC2)cc1`, the EC50 in [2] is 34.4 µM (active); in assay [3], > 38 µM (not active).

In the case of `Cc1[nH]n(-c2cccc3ccccc23)c(=O)c1/C=N/NC(=O)c1cccc([N+](=O)[O-])c1`, the EC50 in [6] is 7.09 µM (active); in assay [7] it was 2.98 µM (active); in [2], 12.1 µM (active); in assay [3], > 38 µM (not active).

For the compound `CCN(CC)CCOC(=O)c1ccc(N)cc1` [PROCAINE HYDROCHLORIDE], the EC50 in assay [8] was > 195 µM (not active).

As to `CCN=C(S)NNC(=O)c1cc(-c2cccc(C)c2)nc2ccccc12`, the figures for the EC50 in [2] and in [3] were 20.2 µM (inconclusive) and 2.5 µM (active), respectively. On to `CCN(c1ccccc1)S(=O)(=O)c1cccc(C(=O)NCC(c2cccs2)N2CCOCC2)c1` (centres undefined), for which the AC50 in assay [1] is > 195 µM (inactive). `O=C(NCc1ccccc1)C1CCCN(S(=O)(=O)c2cccc3nsnc23)C1` (centres undefined): in assay [8], the EC50 is listed as > 195 µM (not active). For the compound `CC(Oc1ccc(Br)cc1)C(=O)NC1CCN(Cc2ccccc2)CC1` (centres undefined), the EC50 in assay [4] was > 60 µM (not active); in assay [5], 0.579 µM (active). With `Cc1cccc(CN2C(=O)[C@@H]3Cc4c([nH]c5ccccc45)C(C)(C)N3C2=O)c1`, the AC50 in assay [1] was 11.9 µM (active). `CCOc1ccccc1CN1CCN(CC2=Cc3cc(OC)ccc3OC2)CC1CCO` (centres undefined): the EC50 in assay [4] is > 60 µM (not active); in assay [5], 1.29 µM (active). In the same order, the values of `CCN(CC)S(=O)(=O)c1ccc(N2CCN(C)CC2)c(NC(=O)COc2ccc(F)cc2Cl)c1` are > 60 µM (not active) and 0.252 µM (active). Turning to `O=C(NC1CCCCC1)C1CCN(c2nccs2)CC1`, in assay [8], the EC50 is listed as > 195 µM (not active).

Regarding `O=C(Nc1ccc(Cl)cc1)N1CCCN(c2ccc(C(F)(F)F)cc2[N+](=O)[O-])CC1`, in assay [1], the AC50 is 4.79 µM (active). `Cc1cc(C)nc(N=C(NCc2ccc3c(c2)OCO3)NC(=O)Nc2ccccc2)n1`: the EC50 in [2] was > 150 µM (inactive); in [3], > 38 µM (not active). For the compound `O=C(NC(=S)NCCc1ccccc1)C1CCCCC1`, the AC50 in assay [1] is 10.6 µM (active). On to `O=C(Nc1ccc(Cl)c([N+](=O)[O-])c1)c1ccc(NCCCN2CCOCC2)c([N+](=O)[O-])c1`, for which the EC50 in assay [4] was > 60 µM (not active); in [5], 0.963 µM (active). For `O=C(NCc1ccccc1)N1CCC(CO)(Cc2cccc(F)c2)CC1`, the EC50 in assay [8] is given as > 195 µM (not active). The same measure, in the same setting: the value for `Cc1cc(NC(=O)CSc2nnc(C)n2C)no1` was > 195 µM (not active). Consider `Cc1sc2ncnc(N3CCC(C(=O)Nc4nc(-c5cccs5)cs4)CC3)c2c1C`, for which the EC50 was 1.07 µM (active) in [8], > 60 µM (not active) in assay [4] and 1.6 µM (active) in assay [5]. `CC(=O)Nc1ccc(S(=O)(=O)NCc2ccc(C(=O)NCc3ccc4c(c3)OCO4)cc2)cc1`: the EC50 in [8] is listed as > 195 µM (not active). As to `CCOC(=O)c1cnc(SC)nc1Oc1cccc(NS(=O)(=O)c2ccccc2)c1`, the EC50 in [4] is > 60 µM (not active); in [5], 1.64 µM (active). Taken in the same sequence, the figures for `COc1cccc(CN(C(=O)Cc2c[nH]c3ccccc23)C(C(=O)NC2CCCCC2)c2cccs2)c1` (centres undefined) were > 60 µM (not active) and 1.98 µM (active). As to `CC(=O)Oc1c(Cl)cc(Cl)cc1/C=C/c1ccc2ccccc2n1`, in [1], the AC50 is 1.81 µM (active). For `O=C(O)/C=C\C(=O)Nc1ccc(OCc2ccccc2)cc1`, the EC50 in assay [8] is 31 µM (active). Take `Cc1ccc(SCCN=C(S)Nc2ccc(C)cc2C)cc1`: the EC50 is > 60 µM (not active) in [4] and 2.2 µM (active) in assay [5].

In the case of `COc1cc(NS(=O)(=O)c2ccc(NC(=S)NC(=O)/C=C/c3ccc(OC)c(OC)c3)cc2)ncn1`, the 50% effective concentration (EC50) in assay [8] was > 195 µM (not active). For the compound `CN1CCN(C(=O)CCc2ccc(S(=O)(=O)NC3CCCCC3)cc2)CC1`, the EC50 is > 60 µM (not active) in assay [4] and 0.141 µM (active) in assay [5].

The values above are taken from ChEMBL document CHEMBL1201862, “PubChem BioAssay data set” (2004).
